The CheMixHub viscosity set
Where “and” joins values, the source holds several entries; their conditions need not be identical. Equal entries are not always repeated.

Assay: xn = mol fraction of the nth substance listed

CS(C)=O + O
viscosity
Details | 293.15 K | 298.15 K
101 kPa, x1 = 0.01 | 1.11 mPa·s | –
101 kPa, x1 = 0.01869 | – | 1.01 mPa·s
101 kPa, x1 = 0.025 | 1.23 mPa·s | –
101 kPa, x1 = 0.039 | 1.38 mPa·s | –
101 kPa, x1 = 0.0406 | – | 1.19 mPa·s
101 kPa, x1 = 0.05 | 1.502 mPa·s | 1.318 mPa·s
101 kPa, x1 = 0.055 | 1.55 mPa·s | –
101 kPa, x1 = 0.06619 | – | 1.44 mPa·s
101 kPa, x1 = 0.071 | 1.74 mPa·s | –
101 kPa, x1 = 0.09 | 1.97 mPa·s | –
101 kPa, x1 = 0.11 | 2.23 mPa·s | –
101 kPa, x1 = 0.13 | 2.54 mPa·s | –
101 kPa, x1 = 0.15 | 2.815 mPa·s | 2.438 mPa·s
101 kPa, x1 = 0.16 | 2.9 mPa·s | –
101 kPa, x1 = 0.19 | 3.28 mPa·s | –
101 kPa, x1 = 0.2 | – | 3.156 mPa·s
101 kPa, x1 = 0.22 | 3.68 mPa·s | –
101 kPa, x1 = 0.25 | 4.042 mPa·s | 3.4 mPa·s
101 kPa, x1 = 0.26 | 4.02 mPa·s | –
101 kPa, x1 = 0.3 | 4.26 mPa·s | –
101 kPa, x1 = 0.35 | 4.375 mPa·s and 4.4 mPa·s | 3.763 mPa·s
101 kPa, x1 = 0.4 | – | 3.799 mPa·s
101 kPa, x1 = 0.41 | 4.29 mPa·s | –
101 kPa, x1 = 0.48 | 3.913 mPa·s and 3.97 mPa·s | 3.395 mPa·s and 3.446 mPa·s
101 kPa, x1 = 0.57 | 3.54 mPa·s | –
101 kPa, x1 = 0.6 | – | 3.008 mPa·s
101 kPa, x1 = 0.67 | 3.08 mPa·s | –
101 kPa, x1 = 0.73 | 2.9 mPa·s | 2.507 mPa·s
101 kPa, x1 = 0.8 | – | 2.375 mPa·s
101 kPa, x1 = 0.81 | 2.62 mPa·s | –
101 kPa, x2 = 0.047 | – | 2.054 mPa·s
101 kPa, x2 = 0.089 | – | 2.118 mPa·s
101 kPa, x2 = 0.186 | – | 2.298 mPa·s
101 kPa, x2 = 0.2 | – | 2.3 mPa·s
101 kPa, x2 = 0.3 | – | 2.7 mPa·s
101 kPa, x2 = 0.335 | – | 2.708 mPa·s
101 kPa, x2 = 0.522 | – | 3.449 mPa·s
101 kPa, x2 = 0.59 | – | 3.676 mPa·s
101 kPa, x2 = 0.651 | – | 3.764 mPa·s
101 kPa, x2 = 0.702 | – | 3.674 mPa·s
101 kPa, x2 = 0.743 | – | 3.467 mPa·s
101 kPa, x2 = 0.812 | – | 2.854 mPa·s
101 kPa, x2 = 0.867 | – | 2.232 mPa·s
101 kPa, x2 = 0.91 | – | 1.748 mPa·s
101 kPa, x2 = 0.945 | – | 1.382 mPa·s
101 kPa, x2 = 0.975 | – | 1.11 mPa·s
101.3 kPa, x1 = 0.012 | 1.112 mPa·s | 0.986 mPa·s
101.3 kPa, x2 = 0.1906 | 2.569 mPa·s | 2.299 mPa·s
101.3 kPa, x2 = 0.3252 | 2.966 mPa·s | 2.63 mPa·s
101.3 kPa, x2 = 0.5203 | 3.891 mPa·s | 3.38 mPa·s
101.3 kPa, x2 = 0.6501 | 4.352 mPa·s | 3.727 mPa·s
101.3 kPa, x2 = 0.743 | 3.998 mPa·s | 3.414 mPa·s
101.3 kPa, x2 = 0.8183 | 3.231 mPa·s | 2.773 mPa·s
101.3 kPa, x2 = 0.8668 | 2.57 mPa·s | –
101.3 kPa, x2 = 0.9101 | 2.008 mPa·s | 1.747 mPa·s
101.3 kPa, x2 = 0.9455 | 1.575 mPa·s | 1.383 mPa·s
101.3 kPa, x2 = 0.9751 | 1.247 mPa·s | 1.101 mPa·s
101.33 kPa, x1 = 0.00588 | 1.053 mPa·s | –
101.33 kPa, x1 = 0.012 | 1.112 mPa·s | –
101.33 kPa, x1 = 0.02498 | 1.264 mPa·s | –
101.33 kPa, x1 = 0.03901 | 1.402 mPa·s | –
101.33 kPa, x1 = 0.04864 | 1.515 mPa·s | –
101.33 kPa, x1 = 0.0545 | 1.559 mPa·s | –
101.33 kPa, x1 = 0.08993 | 2.009 mPa·s | –
101.33 kPa, x1 = 0.1332 | 2.589 mPa·s | –
101.33 kPa, x1 = 0.1469 | 2.743 mPa·s | –
101.33 kPa, x1 = 0.1874 | 3.319 mPa·s | –
101.33 kPa, x1 = 0.2998 | 4.296 mPa·s | –
101.33 kPa, x1 = 0.3498 | 4.385 mPa·s | –
101.33 kPa, x1 = 0.4498 | 4.091 mPa·s | –
101.33 kPa, x1 = 0.5665 | 3.498 mPa·s | –
101.33 kPa, x1 = 0.651 | 3.211 mPa·s | –
101.33 kPa, x1 = 0.7539 | 2.743 mPa·s | –
101.33 kPa, x1 = 0.847 | 2.514 mPa·s | –
101.33 kPa, x2 = 0.2097 | – | 2.291 mPa·s
101.33 kPa, x2 = 0.3132 | – | 2.568 mPa·s
101.33 kPa, x2 = 0.409 | – | 2.909 mPa·s
101.33 kPa, x2 = 0.503 | – | 3.197 mPa·s
101.33 kPa, x2 = 0.7032 | – | 3.569 mPa·s
101.33 kPa, x2 = 0.8053 | – | 2.858 mPa·s
101.33 kPa, x2 = 0.9021 | – | 1.787 mPa·s
